This is an account of results in patent publication US10947213B1 (Merck Patent GmbH, priority 2015, dated 2021).

The structures appear in SMILES notation. Structures can show the parent of a compound that is named as a salt. Bounds are passed on as bounds.

This experiment concerns the target T1, TLR7/NFKb HEK cells (Homo sapiens, UniProt Q9NYK1).
T1 construct: expressed in transfected cells; host or cells: HEK cells (TLR7/NFKb reporter line)
T1 sequence (Q9NYK1 27-1049): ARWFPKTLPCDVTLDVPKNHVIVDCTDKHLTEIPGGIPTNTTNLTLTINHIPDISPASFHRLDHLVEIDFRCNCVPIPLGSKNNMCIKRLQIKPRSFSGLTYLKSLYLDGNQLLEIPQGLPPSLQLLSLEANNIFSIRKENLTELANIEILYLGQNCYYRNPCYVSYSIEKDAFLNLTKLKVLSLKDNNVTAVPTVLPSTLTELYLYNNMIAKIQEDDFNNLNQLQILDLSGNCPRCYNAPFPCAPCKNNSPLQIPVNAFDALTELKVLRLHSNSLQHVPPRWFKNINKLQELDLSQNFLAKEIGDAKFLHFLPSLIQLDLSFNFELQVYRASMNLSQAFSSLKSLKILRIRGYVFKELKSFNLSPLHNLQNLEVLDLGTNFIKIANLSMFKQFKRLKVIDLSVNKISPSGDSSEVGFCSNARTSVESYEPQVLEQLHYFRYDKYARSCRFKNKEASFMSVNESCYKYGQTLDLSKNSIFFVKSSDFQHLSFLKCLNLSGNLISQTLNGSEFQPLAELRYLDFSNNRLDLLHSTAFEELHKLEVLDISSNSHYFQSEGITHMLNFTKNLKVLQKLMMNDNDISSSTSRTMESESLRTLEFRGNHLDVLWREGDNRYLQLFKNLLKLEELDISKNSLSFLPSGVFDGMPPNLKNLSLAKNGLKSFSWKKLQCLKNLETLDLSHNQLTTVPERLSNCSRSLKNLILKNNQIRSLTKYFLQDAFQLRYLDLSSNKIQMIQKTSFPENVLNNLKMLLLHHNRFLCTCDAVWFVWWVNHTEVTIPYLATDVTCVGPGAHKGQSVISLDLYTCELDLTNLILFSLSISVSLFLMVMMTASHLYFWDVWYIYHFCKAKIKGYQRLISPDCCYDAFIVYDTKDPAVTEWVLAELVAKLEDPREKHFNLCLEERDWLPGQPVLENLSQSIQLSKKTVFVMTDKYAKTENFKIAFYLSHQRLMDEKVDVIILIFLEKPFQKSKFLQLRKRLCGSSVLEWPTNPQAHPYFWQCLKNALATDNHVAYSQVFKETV
The experiment can be described thus: HEK Cell Assay (TLR7/NFKb reporter, Steady-Glo luciferase readout). Type of experiment: cell-based. As to conditions: 30 min compound preincubation, then R*48 agonist for 5 hours, read-out: Potency. An outline of the steps: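 Steady-Glo luminescence after 5 h stimulation with R*48 agonist, following 30 min compound preincubation. Assay run in HEK cells carrying a TLR7/NFKb luciferase reporter, plated at 5000 cells/well and grown 24 h at 37° C (10% CO2) before treatment.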
With `N#Cc1ccc(N2CC(NC(=O)CC3(N)CCCCC3)CC(C(F)(F)F)C2)c2cccnc12` (single isomer, unassigned) [Compound 497], the IC50 is under 1000 nM.

With `N#Cc1ccc(N2CC(NC3CCC(O)CC3)CC(C(F)(F)F)C2)c2nccnc12` (single isomer, unassigned) [Compound 92, cis,trans-8-(-3-((4-hydroxycyclohexyl)amino)-5-(trifluoromethyl)piperidin-1-yl)quinoxaline-5-carbonitrile], the IC50 lay within 1000 to 10000 nM.

For the molecule `CC(=O)N[C@@H]1C[C@H](C)CN(c2ccc(C(F)(F)F)c3ncccc23)C1` [Compound 517, N-[(3R,5S)-5-Methyl-1-(8-trifluoromethyl-quinolin-5-yl)-piperidin-3-yl]-acetamide], the IC50 is under 1000 nM.

Regarding `C[C@H]1C[C@@H](NC(=O)N2C[C@@H](F)[C@@H](F)C2)CN(c2ccc(C(F)(F)F)c3ncccc23)C1` [Compound 583, (3R,4S)-3,4-Difluoro-pyrrolidine-1-carboxylic Acid [(3R,5S)-5-methyl-1-(8-trifluoromethyl-quinolin-5-yl)-piperidin-3-yl]-amide], the IC50 was in the range of 1000 to 10000 nM.

`C[C@H]1C[C@@H](N)CN(c2ncc(F)c3nccnc23)C1` [Compound 459, (3R,5S)-1-(8-Fluoro-pyrido[3,4-b]pyrazin-5-yl)-5-methyl-piperidin-3-ylamine hydrochloride]: the IC50 was in the range of 1000 to 10000 nM.

Take `O=C(CN1CCC1)NCC1CCN(c2ccnc3nccnc23)CC1` [Compound 402, 2-Azetidin-1-yl-N-(1-pyrido[2,3-b]pyrazin-8-yl-piperidin-4-ylmethyl)-acetamide]: the IC50 lay in the range of 1000 to 10000 nM.

With `CC(C)(C)NCC(=O)NCC1CCN(c2ccnc3nccnc23)CC1` [Compound 406, 2-tert-Butylamino-N-(1-pyrido[2,3-b]pyrazin-8-yl-piperidin-4-ylmethyl)-acetamide], the IC50 is 1000 to 10000 nM.

As to `CC(O)C(=O)N[C@@H]1C[C@H](C)CN(c2ccc(C#N)c3nccnc23)C1` (stereo partly drawn) [Compound 265, N-[(3R,5S)-1-(8-cyanoquinoxalin-5-yl)-5-methylpiperidin-3-yl]-2-hydroxypropanamide], the IC50 is under 1000 nM.

`CN(C)CC(=O)NCC1CCN(c2ccnc3nccnc23)CC1` [Compound 394, 2-Dimethylamino-N-(1-pyrido[2,3-b]pyrazin-8-yl-piperidin-4-ylmethyl)-acetamide]: the IC50 fell in the range of 1000 to 10000 nM.

As for `N[C@H]1C[C@@H](C2CC2)CN(c2ccc(F)c3ncccc23)C1` (relative stereo) [Compound 333, cis-5-cyclopropyl-1-(8-fluoroquinolin-5-yl)piperidin-3-amine], the IC50 is under 1000 nM.

With `Cc1ncc(N2C[C@@H](C)C[C@@H](NC(=O)[C@H](O)C3CC3)C2)c2cccnc12` [Compound 558, (R)-2-Cyclopropyl-2-hydroxy-N-[(3R,5S)-5-methyl-1-(8-methyl-[1,7]naphthyridin-5-yl)-piperidin-3-yl]-acetamide], the IC50 is 1000 to 10000 nM.

Take `Cc1cc(N2CCC(CNCCN3CCCCC3)CC2)c2cc(F)ccc2n1` [Compound 381, [1-(6-Fluoro-2-methyl-quinolin-4-yl)-piperidin-4-ylmethyl]-(2-piperidin-1-yl-ethyl)-amine]: the IC50 lay in the range of 1000 to 10000 nM.

`C[C@H]1C[C@@H](NCC(N)=O)CN(c2ccnc3nccnc23)C1` [Compound 121, 2-[[(3R,5S)-5-methyl-1-[pyrido[2,3-b]pyrazin-8-yl]piperidin-3-yl]amino]acetamide]: the IC50 was over 10000 nM.

`C[C@H]1C[C@@H](NC(=O)CC2CCN(C)C2)CN(c2ccc(C#N)c3nccnc23)C1` (stereo partly drawn) [Compound 269, N-[(3R,5S)-1-(8-cyanoquinoxalin-5-yl)-5-methylpiperidin-3-yl]-2-(1-methylpyrrolidin-3-yl)acetamide]: the IC50 was under 1000 nM.

`CC(C)C(C)C(=O)N[C@@H]1C[C@H](C)CN(c2ccnc3nccnc23)C1` (stereo partly drawn) [Compound 168, 2,3-dimethyl-N-[(3R,5S)-5-methyl-1-[pyrido[2,3-b]pyrazin-8-yl]piperidin-3-yl]butanamide]: the IC50 is over 10000 nM.

With `C[C@H]1C[C@@H](NC(=O)CN(C)CCO)CN(c2ccc(C#N)c3nccnc23)C1` [Compound 144, N-[(3R,5S)-1-(8-cyanoquinoxalin-5-yl)-5-methylpiperidin-3-yl]-2-[(2-hydroxyethyl)(methyl)amino]acetamide], the IC50 was under 1000 nM.

In the case of `CN1CCC(CC(=O)NC2CN(c3ccc(C#N)c4nccnc34)CC(F)(F)C2)CC1` (single isomer, unassigned) [Compound 522], the IC50 is under 1000 nM.

Turning to `C[C@H]1C[C@@H](NC(=O)CN(C)C)CN(c2ccc(C(N)=O)c3ncccc23)C1` [Compound 186, 5-[(3R,5S)-3-[2-(dimethylamino)acetamido]-5-methylpiperidin-1-yl]quinoline-8-carboxamide], the IC50 is over 10000 nM.

For `O=C(NC1CCN(CC2CC2)C1)C1CCN(c2ccc(C(F)(F)F)c3ncccc23)CC1` (single isomer, unassigned) [Compound 444], the IC50 is under 1000 nM.

In the case of `CC(C)[C@@H](O)C(=O)N[C@@H]1C[C@H](C)CN(c2ccnc3nccnc23)C1` [Compound 23, (R)-2-hydroxy-3-methyl-N-((3R,5S)-5-methyl-1-(pyrido[2,3-b]pyrazin-8-yl)piperidin-3-yl)butanamide], the IC50 was over 10000 nM.

For `C#CC(=O)N[C@@H]1C[C@H](C)CN(c2ccc(C(F)(F)F)c3ncccc23)C1` [Compound 472, Propynoic acid [(3R,5S)-5-methyl-1-(8-trifluoromethyl-quinolin-5-yl)-piperidin-3-yl]-amide], the IC50 is under 1000 nM.

Turning to `CC(C)[C@H](O)C(=O)NC1CC(C(F)(F)F)CN(c2ccc(C#N)c3nccnc23)C1` (single isomer, unassigned) [Compound 88], the IC50 is under 1000 nM.

As to `C[C@H]1C[C@@H](NC(=O)CN)CN(c2ccnc3nccnc23)C1` [Compound 34, 2-amino-N-((3R,5S)-5-methyl-1-(pyrido[2,3-b]pyrazin-8-yl)piperidin-3-yl)acetamide], the IC50 was over 10000 nM.

Regarding `N#Cc1ccc(N2CC(N)CC(F)(F)C2)c2cccnc12` (stereo not shown) [Compound 423, 5-(5-Amino-3,3-difluoro-piperidin-1-yl)-quinoline-8-carbonitrile hydrochloride], the IC50 was under 1000 nM.

`COc1ccc(C(=O)NCC2CCN(c3ccnc4nccnc34)CC2)cc1OC` [Compound 391, 3,4-Dimethoxy-N-(1-pyrido[2,3-b]pyrazin-8-yl-piperidin-4-ylmethyl)-benzamide]: the IC50 was over 10000 nM.

Regarding `C[C@H]1C[C@@H](NC(=O)CN2CCC(F)(F)CC2)CN(c2ccc(C#N)c3nccnc23)C1` [Compound 348, N-[(3R,5S)-1-(8-cyanoquinoxalin-5-yl)-5-methylpiperidin-3-yl]-2-(4,4-difluoropiperidin-1-yl)acetamide], the IC50 is under 1000 nM.

On to `C[C@H]1C[C@@H](NC(=O)C(N)C(F)(F)F)CN(c2c(F)cc(C#N)c3nccnc23)C1` (single isomer, unassigned) [Compound 346], for which the IC50 is over 10000 nM.

Take `N#Cc1ccc(N2CC(N)CC(C3CC3)C2)c2nccnc12` (single isomer, unassigned) [Compound 69, 8-(3-amino-5-cyclopropylpiperidin-1-yl)quinoxaline-5-carbonitrile]: the IC50 was 1000 to 10000 nM.
